Results: patent publication US7074789B2, “Kinase inhibitors” (Amgen Inc., priority 1999, dated 2006)

Assays:
Format in all cases: biochemical
[1] = target: T1, c-Met (Homo sapiens, UniProt P08581); assay: Kinase inhibition assay (33P transfer), c-Met; details: Table 2, class symbols A-E; read-out: Met-1
T1 construct: Kinases are expressed as either kinase domains or full length constructs; made in house
In short: (§1)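 Read-out: scintillation counts of 33P moved from ATP onto synthetic peptide polymer coated on the well surface, after washing with 0.5% phosphoric acid. Enzymes were tagged (GST or polyHistidine) and came from bacterial or insect-cell expression. IC50 marks 50% loss of incorporated label.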

[2] = target: T2, Lck (Homo sapiens, UniProt P06239); assay: Kinase inhibition assay (33P transfer), Lck; details: Table 3, class symbols; read-out: Lck-1
T2 construct: Kinases are expressed as either kinase domains or full length constructs; made in house
T2 sequence (P06239 whole entry, species assumed, the tested form may be a part): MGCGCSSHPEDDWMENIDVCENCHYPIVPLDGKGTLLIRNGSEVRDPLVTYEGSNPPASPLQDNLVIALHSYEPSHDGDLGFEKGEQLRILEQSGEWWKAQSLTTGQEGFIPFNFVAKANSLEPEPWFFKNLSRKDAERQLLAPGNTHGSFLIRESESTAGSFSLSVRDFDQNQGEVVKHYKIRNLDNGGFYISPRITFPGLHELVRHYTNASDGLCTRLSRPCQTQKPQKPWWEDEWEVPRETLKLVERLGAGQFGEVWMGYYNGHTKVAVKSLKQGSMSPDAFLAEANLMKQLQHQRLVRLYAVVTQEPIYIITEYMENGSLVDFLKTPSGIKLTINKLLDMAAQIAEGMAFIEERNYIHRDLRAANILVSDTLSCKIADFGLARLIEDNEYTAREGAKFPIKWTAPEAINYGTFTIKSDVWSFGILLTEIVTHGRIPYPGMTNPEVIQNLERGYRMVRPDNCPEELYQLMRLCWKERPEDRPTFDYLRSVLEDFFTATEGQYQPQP
In short: (§2)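 Activity was read as 33P incorporation, counted by liquid scintillation after a 0.5% phosphoric acid wash, into poly(Glu,Tyr) 4:1 or poly(Arg,Ser) 3:1 substrates coated on plates. Enzymes were tagged (GST or polyHis) kinase domains or full-length proteins from bacterial or insect-cell expression, sometimes with regulatory polypeptides.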

[3] = target: T3, PDGFRB (Homo sapiens, UniProt P09619); assay: Kinase inhibition assay (33P transfer), PDGFRB; details: read-out: PDGFRB-1
T3 construct: Kinases are expressed as either kinase domains or full length constructs; made in house

[4] = target: T4, EGFR (Homo sapiens, UniProt P00533); assay: Kinase inhibition assay (33P transfer), EGFR; details: Table 2, class symbols A-E; read-out: EGFR-1
T4 construct: Kinases are expressed as either kinase domains or full length constructs; made in house
In short: as §1

[5] = target: T5, Zap-70 (Homo sapiens, UniProt P43403); assay: Kinase inhibition assay (33P transfer), Zap-70; details: Table 3, class symbols; read-out: Zap-1
T5 construct: Kinases are expressed as either kinase domains or full length constructs; made in house
T5 sequence (P43403 1-619): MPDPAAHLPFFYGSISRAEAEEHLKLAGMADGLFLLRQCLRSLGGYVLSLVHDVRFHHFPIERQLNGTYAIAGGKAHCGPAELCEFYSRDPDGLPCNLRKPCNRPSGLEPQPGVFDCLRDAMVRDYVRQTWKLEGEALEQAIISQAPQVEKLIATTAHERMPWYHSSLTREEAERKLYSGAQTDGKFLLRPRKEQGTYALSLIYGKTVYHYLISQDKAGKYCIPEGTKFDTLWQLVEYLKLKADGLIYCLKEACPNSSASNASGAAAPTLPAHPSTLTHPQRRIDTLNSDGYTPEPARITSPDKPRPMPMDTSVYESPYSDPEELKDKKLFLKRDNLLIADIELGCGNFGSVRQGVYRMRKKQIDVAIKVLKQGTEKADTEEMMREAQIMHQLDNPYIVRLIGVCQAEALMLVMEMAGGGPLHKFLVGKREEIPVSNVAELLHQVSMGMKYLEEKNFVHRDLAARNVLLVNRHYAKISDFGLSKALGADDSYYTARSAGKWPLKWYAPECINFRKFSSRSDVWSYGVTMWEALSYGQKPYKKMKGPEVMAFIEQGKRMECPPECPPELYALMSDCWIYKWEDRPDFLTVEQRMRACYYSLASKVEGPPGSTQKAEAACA
In short: as §2

[6] = target: T6, AKT (Homo sapiens, UniProt Q9Y243); assay: Kinase inhibition assay (33P transfer), AKT; details: Table 2, class symbols A-E; read-out: AKT3-1
T6 construct: Kinases are expressed as either kinase domains or full length constructs; made in house
T6 sequence (Q9Y243 whole entry, the tested form may be a part): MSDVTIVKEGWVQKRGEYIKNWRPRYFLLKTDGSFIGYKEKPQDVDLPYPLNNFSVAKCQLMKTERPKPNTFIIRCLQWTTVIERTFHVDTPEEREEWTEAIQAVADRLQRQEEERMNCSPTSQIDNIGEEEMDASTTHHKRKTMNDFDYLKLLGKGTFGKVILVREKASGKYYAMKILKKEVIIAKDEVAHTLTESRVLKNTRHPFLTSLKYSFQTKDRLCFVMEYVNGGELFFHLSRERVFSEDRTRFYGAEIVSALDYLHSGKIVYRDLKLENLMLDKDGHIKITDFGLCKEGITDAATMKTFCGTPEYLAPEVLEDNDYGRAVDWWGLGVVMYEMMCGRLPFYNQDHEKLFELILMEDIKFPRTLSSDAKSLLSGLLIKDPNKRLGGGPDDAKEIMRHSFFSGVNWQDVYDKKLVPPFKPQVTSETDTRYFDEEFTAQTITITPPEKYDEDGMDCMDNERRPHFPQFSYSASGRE
In short: as §2

[7] = target: T7, IGFR-1 (Homo sapiens, UniProt P08069); assay: Kinase inhibition assay (33P transfer), IGFR-1; details: Table 2, class symbols A-E
T7 construct: Kinases are expressed as either kinase domains or full length constructs; made in house
T7 sequence (P08069 31-1367): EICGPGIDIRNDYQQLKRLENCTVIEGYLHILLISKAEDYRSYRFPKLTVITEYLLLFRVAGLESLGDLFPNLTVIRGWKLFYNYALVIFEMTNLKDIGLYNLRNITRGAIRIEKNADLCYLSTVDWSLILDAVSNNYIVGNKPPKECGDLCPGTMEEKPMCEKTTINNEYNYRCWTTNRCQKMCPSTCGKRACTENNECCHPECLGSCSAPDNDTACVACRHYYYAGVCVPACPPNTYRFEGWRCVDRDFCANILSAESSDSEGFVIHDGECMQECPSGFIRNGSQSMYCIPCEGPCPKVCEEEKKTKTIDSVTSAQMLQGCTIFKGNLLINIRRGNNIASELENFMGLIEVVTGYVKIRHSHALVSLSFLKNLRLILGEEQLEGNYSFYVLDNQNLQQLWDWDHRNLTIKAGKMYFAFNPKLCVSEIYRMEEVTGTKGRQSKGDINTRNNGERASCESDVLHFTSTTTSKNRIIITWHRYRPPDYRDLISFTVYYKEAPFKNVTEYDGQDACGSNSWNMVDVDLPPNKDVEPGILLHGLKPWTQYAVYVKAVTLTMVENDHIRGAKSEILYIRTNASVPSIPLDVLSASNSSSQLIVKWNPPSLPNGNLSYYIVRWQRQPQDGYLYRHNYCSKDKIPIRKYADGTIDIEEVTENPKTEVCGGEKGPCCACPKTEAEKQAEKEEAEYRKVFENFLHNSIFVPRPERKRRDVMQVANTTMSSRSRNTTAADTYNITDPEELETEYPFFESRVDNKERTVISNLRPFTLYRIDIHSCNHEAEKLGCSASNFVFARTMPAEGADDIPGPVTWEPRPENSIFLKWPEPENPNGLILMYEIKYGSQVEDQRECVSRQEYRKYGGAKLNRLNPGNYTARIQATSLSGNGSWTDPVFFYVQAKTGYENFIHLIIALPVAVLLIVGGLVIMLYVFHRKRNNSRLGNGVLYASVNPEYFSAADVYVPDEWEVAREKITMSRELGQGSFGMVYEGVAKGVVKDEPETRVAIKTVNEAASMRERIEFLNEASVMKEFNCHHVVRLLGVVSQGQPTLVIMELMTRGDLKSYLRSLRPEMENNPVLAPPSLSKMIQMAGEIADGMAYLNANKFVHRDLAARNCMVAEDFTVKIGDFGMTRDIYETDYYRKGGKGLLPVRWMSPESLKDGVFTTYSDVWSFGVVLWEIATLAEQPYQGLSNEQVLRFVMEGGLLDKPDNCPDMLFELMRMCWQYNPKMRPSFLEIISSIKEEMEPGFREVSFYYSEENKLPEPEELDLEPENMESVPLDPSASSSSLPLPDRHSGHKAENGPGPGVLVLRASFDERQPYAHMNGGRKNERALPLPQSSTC

[8] = target: T8, Itk (Homo sapiens, UniProt Q08881); assay: Kinase inhibition assay (33P transfer), Itk; details: Table 3, class symbols; read-out: Itk-1
T8 construct: Kinases are expressed as either kinase domains or full length constructs; made in house
T8 sequence (Q08881 1-620): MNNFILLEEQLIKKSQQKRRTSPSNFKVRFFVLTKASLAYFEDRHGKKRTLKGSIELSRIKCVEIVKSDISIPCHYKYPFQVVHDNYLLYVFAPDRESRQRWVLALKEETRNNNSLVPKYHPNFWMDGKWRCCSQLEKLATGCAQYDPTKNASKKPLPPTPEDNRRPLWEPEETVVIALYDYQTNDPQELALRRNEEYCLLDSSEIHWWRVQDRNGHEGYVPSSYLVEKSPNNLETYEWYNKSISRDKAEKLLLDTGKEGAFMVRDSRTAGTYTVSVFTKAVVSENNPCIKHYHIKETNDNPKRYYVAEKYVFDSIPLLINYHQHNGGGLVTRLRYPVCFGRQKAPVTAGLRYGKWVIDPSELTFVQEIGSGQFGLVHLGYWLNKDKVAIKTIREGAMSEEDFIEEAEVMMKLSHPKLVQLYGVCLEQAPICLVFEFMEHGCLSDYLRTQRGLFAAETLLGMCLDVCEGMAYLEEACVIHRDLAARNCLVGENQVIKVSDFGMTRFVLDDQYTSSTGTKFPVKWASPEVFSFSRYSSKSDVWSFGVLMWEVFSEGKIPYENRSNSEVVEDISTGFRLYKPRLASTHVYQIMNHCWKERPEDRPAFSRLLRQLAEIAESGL
In short: as §1

[9] = target: T9, Kdr (Homo sapiens, UniProt P35968); assay: Kinase inhibition assay (33P transfer), Kdr; details: Table 3, class symbols; read-out: KDR-1
T9 construct: Kinases are expressed as either kinase domains or full length constructs; made in house
T9 sequence (P35968 20-1356, species assumed): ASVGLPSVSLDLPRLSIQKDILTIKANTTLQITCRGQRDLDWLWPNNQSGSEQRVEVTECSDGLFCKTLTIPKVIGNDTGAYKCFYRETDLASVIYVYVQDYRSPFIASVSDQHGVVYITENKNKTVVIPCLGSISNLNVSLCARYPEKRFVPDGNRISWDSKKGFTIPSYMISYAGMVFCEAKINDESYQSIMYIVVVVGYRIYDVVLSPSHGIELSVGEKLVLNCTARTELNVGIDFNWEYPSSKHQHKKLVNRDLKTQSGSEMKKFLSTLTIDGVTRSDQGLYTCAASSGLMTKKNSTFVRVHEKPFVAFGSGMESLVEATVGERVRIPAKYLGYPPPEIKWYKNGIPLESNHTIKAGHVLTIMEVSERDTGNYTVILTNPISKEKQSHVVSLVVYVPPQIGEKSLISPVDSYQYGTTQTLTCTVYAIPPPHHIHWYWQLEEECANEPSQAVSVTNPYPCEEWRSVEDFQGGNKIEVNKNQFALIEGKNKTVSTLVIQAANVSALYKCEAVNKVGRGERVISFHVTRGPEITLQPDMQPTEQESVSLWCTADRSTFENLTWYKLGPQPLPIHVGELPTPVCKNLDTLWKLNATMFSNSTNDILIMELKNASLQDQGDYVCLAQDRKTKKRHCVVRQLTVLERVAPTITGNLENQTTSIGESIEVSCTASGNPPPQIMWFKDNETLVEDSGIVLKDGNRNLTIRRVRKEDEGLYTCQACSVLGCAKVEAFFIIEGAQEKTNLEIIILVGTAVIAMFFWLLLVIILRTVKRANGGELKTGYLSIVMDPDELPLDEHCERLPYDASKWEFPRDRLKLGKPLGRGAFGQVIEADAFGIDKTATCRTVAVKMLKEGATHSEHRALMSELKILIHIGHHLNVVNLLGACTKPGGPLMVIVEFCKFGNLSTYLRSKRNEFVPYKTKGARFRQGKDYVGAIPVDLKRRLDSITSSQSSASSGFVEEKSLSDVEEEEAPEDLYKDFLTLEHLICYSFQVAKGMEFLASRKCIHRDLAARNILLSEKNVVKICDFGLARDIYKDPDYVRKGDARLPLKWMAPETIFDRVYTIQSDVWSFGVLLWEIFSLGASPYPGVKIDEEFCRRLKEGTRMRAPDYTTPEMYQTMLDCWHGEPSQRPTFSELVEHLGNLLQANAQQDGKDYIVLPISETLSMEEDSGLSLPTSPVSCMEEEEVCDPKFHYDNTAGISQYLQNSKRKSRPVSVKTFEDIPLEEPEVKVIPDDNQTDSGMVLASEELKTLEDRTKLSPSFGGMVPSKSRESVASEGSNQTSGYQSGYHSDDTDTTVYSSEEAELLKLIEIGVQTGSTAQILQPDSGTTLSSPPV
In short: as §2

[10] = target: T10, ErbB2 (Homo sapiens, UniProt P04626); assay: Kinase inhibition assay (33P transfer), ErbB2; details: read-out: ErbB2-2
T10 construct: Kinases are expressed as either kinase domains or full length constructs; made in house
T10 sequence (P04626 23-1255, species assumed): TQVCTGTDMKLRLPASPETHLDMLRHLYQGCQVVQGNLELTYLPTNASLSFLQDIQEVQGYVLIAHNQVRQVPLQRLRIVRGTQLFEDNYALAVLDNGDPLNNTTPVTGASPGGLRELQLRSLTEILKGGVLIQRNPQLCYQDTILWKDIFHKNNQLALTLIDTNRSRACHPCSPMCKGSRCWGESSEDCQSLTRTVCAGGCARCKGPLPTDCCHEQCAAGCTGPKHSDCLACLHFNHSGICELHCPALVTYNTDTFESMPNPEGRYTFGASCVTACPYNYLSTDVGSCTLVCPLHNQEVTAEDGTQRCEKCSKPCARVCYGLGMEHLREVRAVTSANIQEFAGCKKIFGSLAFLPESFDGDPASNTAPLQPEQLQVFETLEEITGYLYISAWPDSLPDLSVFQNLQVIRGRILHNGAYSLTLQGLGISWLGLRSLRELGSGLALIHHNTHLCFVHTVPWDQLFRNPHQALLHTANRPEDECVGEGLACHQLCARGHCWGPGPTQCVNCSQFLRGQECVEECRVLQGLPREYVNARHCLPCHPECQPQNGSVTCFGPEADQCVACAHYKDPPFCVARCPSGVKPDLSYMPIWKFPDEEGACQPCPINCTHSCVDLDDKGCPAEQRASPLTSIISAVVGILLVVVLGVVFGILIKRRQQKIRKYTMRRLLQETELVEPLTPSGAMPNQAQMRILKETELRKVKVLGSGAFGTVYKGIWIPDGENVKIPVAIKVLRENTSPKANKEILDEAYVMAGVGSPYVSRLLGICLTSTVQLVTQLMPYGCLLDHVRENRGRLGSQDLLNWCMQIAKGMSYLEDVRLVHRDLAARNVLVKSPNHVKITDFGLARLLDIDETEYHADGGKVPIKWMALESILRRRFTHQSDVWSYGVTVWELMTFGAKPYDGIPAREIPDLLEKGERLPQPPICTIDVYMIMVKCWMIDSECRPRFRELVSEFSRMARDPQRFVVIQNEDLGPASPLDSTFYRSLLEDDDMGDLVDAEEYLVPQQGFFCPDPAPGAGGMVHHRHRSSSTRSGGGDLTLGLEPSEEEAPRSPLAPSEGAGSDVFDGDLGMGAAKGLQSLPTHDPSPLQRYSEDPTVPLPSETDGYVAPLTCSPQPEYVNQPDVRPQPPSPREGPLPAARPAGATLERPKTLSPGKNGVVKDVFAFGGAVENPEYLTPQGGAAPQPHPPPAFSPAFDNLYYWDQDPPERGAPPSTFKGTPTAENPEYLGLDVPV
In short: as §1

Row | IC50 [1] | IC50 [2] | IC50 [3] | IC50 [4] | IC50 [5] | IC50 [6] | IC50 [7] | IC50 [8] | IC50 [9] | IC50 [10] | Structure (SMILES)
1 | > 9.63 µM | > 9.63 µM | 0.856 to 5.13 µM | > 9.63 µM | > 9.63 µM | 5.13 to 7.49 µM | > 9.63 µM | > 9.63 µM | 0.856 to 5.13 µM | > 9.63 µM | COc1ccc(CNc2nc3ccccc3n2-c2ncnc(Nc3cccc(C(=O)O)c3)n2)cc1 [Compound 1070]
2 | > 10.2 µM | > 10.2 µM | < 0.91 µM | > 10.2 µM | > 10.2 µM | > 10.2 µM | > 10.2 µM | > 10.2 µM | < 0.91 µM | > 10.2 µM | c1ccc(CNc2ncccc2-c2ncnc(Nc3ccc(N4CCOCC4)cc3)n2)cc1 [Compound 1105]
3 | 9.1 to 11.7 µM | 1.04 to 6.24 µM | 9.1 to 11.7 µM | 6.24 to 9.1 µM | > 11.7 µM | > 11.7 µM | < 1.04 µM | 1.04 to 6.24 µM | < 1.04 µM | 6.24 to 9.1 µM | Nc1nc2ccccc2n1-c1ncnc(Nc2cccc(Cn3ccnn3)c2)n1 [Compound 960]
4 | > 12.4 µM | > 12.4 µM | > 12.4 µM | > 12.4 µM | > 12.4 µM | > 12.4 µM | > 12.4 µM | > 12.4 µM | > 12.4 µM | > 12.4 µM | COc1ccc(CNc2ncnc(Nc3cc(-c4ccco4)n[nH]3)n2)cc1 [Compound 994]
5 | 0.945 to 5.67 µM | > 10.6 µM | 0.945 to 5.67 µM | < 0.945 µM | > 10.6 µM | > 10.6 µM | > 10.6 µM | 0.945 to 5.67 µM | 0.945 to 5.67 µM | 0.945 to 5.67 µM | COc1ccc(Nc2ncnc(Nc3ccc4c(cnn4Cc4ccccc4)c3)n2)cc1 [Compound 905]
6 | 5.03 to 7.33 µM | > 9.43 µM | > 9.43 µM | < 0.838 µM | > 9.43 µM | > 9.43 µM | > 9.43 µM | > 9.43 µM | > 9.43 µM | 0.838 to 5.03 µM | FC(F)(F)Oc1cccc(Nc2ncnc(Nc3ccc4c(cnn4Cc4ccccc4)c3)n2)c1 [Compound 907]
7 | 6.59 to 9.6 µM | 1.1 to 6.59 µM | < 1.1 µM | > 12.3 µM | 6.59 to 9.6 µM | > 12.3 µM | > 12.3 µM | > 12.3 µM | 1.1 to 6.59 µM | > 12.3 µM | CC(C)Nc1ncccc1-c1ncnc(Nc2cccc(CC(=O)O)c2)n1 [Compound 1097]

The next lines start with the compound.

Row | Structure (SMILES) | IC50 [1] | IC50 [2] | IC50 [3] | IC50 [4] | IC50 [5] | IC50 [6] | IC50 [7] | IC50 [8] | IC50 [9] | IC50 [10]
8 | CN(c1ccc2c(cnn2Cc2ccccc2)c1)c1ncnc(Nc2cccc(Cc3nnn[nH]3)c2)n1 [Compound 671] | < 0.817 µM | 7.15 to 9.19 µM | 0.817 to 4.9 µM | < 0.817 µM | > 9.19 µM | > 9.19 µM | 4.9 to 7.15 µM | 7.15 to 9.19 µM | 0.817 to 4.9 µM | < 0.817 µM
9 | Clc1cc(Nc2ncnc(Nc3ccc4c(cnn4Cc4ccccc4)c3)n2)cc(Cl)c1Cl [Compound 872] | 0.805 to 4.83 µM | > 9.06 µM | 0.805 to 4.83 µM | 0.805 to 4.83 µM | > 9.06 µM | 0.805 to 4.83 µM | 0.805 to 4.83 µM | 0.805 to 4.83 µM | 0.805 to 4.83 µM | 0.805 to 4.83 µM
10 | COc1ccc(Nc2ncnc(Nc3ccc(F)c(F)c3)n2)cc1OC [Compound 794] | 9.74 to 12.5 µM | 1.11 to 6.68 µM | 1.11 to 6.68 µM | 1.11 to 6.68 µM | 9.74 to 12.5 µM | > 12.5 µM | 6.68 to 9.74 µM | 9.74 to 12.5 µM | 6.68 to 9.74 µM | 1.11 to 6.68 µM
11 | COc1ccc(Nc2ncnc(NCc3cccc(Cl)c3)n2)cc1OC [Compound 792] | > 12.1 µM | 1.08 to 6.45 µM | > 12.1 µM | 1.08 to 6.45 µM | > 12.1 µM | > 12.1 µM | > 12.1 µM | > 12.1 µM | > 12.1 µM | 6.45 to 9.41 µM
12 | CN(c1cccc(Cl)c1)c1ncnc(Nc2cccc(OC(F)(F)F)c2)n1 [Compound 875] | 6.06 to 8.84 µM | > 11.4 µM | 1.01 to 6.06 µM | < 1.01 µM | > 11.4 µM | > 11.4 µM | > 11.4 µM | 8.84 to 11.4 µM | 6.06 to 8.84 µM | 1.01 to 6.06 µM
13 | COc1ccc(Nc2ncnc(N(C)C3CCN(Cc4ccccc4)C3)n2)cc1OC (centres unmarked) [Compound 802] | > 10.7 µM | > 10.7 µM | 0.951 to 5.71 µM | > 10.7 µM | > 10.7 µM | > 10.7 µM | > 10.7 µM | > 10.7 µM | > 10.7 µM | > 10.7 µM
14 | O=C(O)/C=C/c1ccc(Nc2ncnc(Nc3cc(-c4ccco4)[nH]n3)n2)cc1 [Compound 886] | < 1.03 µM | 1.03 to 6.16 µM | > 11.6 µM | < 1.03 µM | 1.03 to 6.16 µM | 1.03 to 6.16 µM | 1.03 to 6.16 µM | < 1.03 µM | < 1.03 µM | 1.03 to 6.16 µM
15 | COc1cc(Nc2ncnc(-c3cccnc3NC3CCCCC3)n2)cc(OC)c1OC [Compound 848] | > 10.3 µM | 8.02 to 10.3 µM | < 0.916 µM | > 10.3 µM | > 10.3 µM | > 10.3 µM | > 10.3 µM | > 10.3 µM | < 0.916 µM | > 10.3 µM
16 | COc1cc(Nc2ncnc(-c3cccnc3NC3CCc4ccccc43)n2)cc(OC)c1OC (centres unmarked) [Compound 846] | > 9.56 µM | 0.85 to 5.1 µM | 0.85 to 5.1 µM | 5.1 to 7.44 µM | > 9.56 µM | > 9.56 µM | > 9.56 µM | > 9.56 µM | 0.85 to 5.1 µM | 5.1 to 7.44 µM
17 | COc1cc(Nc2ncnc(-c3cccnc3Nc3cccc(C#N)c3)n2)cc(OC)c1OC [Compound 828] | > 9.88 µM | > 9.88 µM | > 9.88 µM | > 9.88 µM | > 9.88 µM | > 9.88 µM | > 9.88 µM | > 9.88 µM | > 9.88 µM | > 9.88 µM
18 | CN(c1cccc(Cl)c1)c1ncnc(Nc2ccc(OC(F)(F)F)cc2)n1 [Compound 874] | > 11.4 µM | > 11.4 µM | > 11.4 µM | 1.01 to 6.06 µM | > 11.4 µM | > 11.4 µM | > 11.4 µM | > 11.4 µM | > 11.4 µM | > 11.4 µM
19 | c1coc(-c2cc(Nc3ncnc(Nc4nc[nH]n4)n3)n[nH]2)c1 [Compound 889] | 1.29 to 7.73 µM | > 14.5 µM | 1.29 to 7.73 µM | 1.29 to 7.73 µM | > 14.5 µM | > 14.5 µM | 1.29 to 7.73 µM | 1.29 to 7.73 µM | 1.29 to 7.73 µM | 1.29 to 7.73 µM
20 | COc1cc(Nc2ncnc(-c3cccnc3Nc3ccc4c(c3)CCC4)n2)cc(OC)c1OC [Compound 830] | 0.85 to 5.1 µM | > 9.56 µM | > 9.56 µM | > 9.56 µM | > 9.56 µM | > 9.56 µM | > 9.56 µM | > 9.56 µM | 0.85 to 5.1 µM | > 9.56 µM
